Experiments:
[1] = molecular target: T1, mouse odorant receptors (ORs) (Mus musculus, UniProt Q9JHB2); assay: CRE-luciferase assay of odorant receptor activation (Dual-Glo, Hana3A cells, RTP1S), dose-response EC50; format: cell-based; conditions: receptor MOR140-1
T1 construct: OR open reading frames were amplified from genomic DNA; expressed in transfected cells; host or cells: Hana3A cells, co-transfected with RTP1S, CRE-luciferase and pRL-SV40
T1 sequence (Q9JHB2 1-309): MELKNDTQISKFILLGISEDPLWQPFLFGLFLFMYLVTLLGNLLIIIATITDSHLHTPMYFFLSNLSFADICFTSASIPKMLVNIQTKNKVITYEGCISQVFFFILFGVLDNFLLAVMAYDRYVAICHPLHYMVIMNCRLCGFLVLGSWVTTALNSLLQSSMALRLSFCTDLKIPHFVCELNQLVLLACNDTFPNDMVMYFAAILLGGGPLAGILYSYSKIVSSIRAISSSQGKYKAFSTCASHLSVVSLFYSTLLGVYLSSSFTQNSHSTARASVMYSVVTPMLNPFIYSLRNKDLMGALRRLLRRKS

[2] = molecular target: T2, mouse odorant receptors (ORs) (Mus musculus, UniProt Q8VGS3); assay: as above; format: cell-based; conditions: receptor MOR180-1; read-out: log EC50 of odorant at MOR180-1 (0 = no response) (converted)
T2 construct: OR open reading frames were amplified from genomic DNA; expressed in transfected cells; host or cells: Hana3A cells, co-transfected with RTP1S, CRE-luciferase and pRL-SV40
T2 sequence (Q8VGS3 1-310): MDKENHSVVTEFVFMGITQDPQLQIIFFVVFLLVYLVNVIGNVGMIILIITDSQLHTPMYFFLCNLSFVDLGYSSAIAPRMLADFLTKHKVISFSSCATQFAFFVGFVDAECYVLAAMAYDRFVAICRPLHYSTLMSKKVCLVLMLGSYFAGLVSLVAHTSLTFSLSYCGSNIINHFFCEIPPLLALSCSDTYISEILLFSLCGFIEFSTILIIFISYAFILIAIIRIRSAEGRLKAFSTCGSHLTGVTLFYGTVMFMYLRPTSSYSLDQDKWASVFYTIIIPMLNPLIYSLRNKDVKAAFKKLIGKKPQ

Structure (SMILES)	log EC50 (Table 4 value), MOR140-1 [1]	EC50 [2]
CCCCCC1=C(C)CCC1=O [Dihydroiasmone]	−3.614	–
CC(=O)Oc1ccccc1 [Phenyl acetate]	–	661 µM

From US20100248390A1, “COMPOSITIONS AND METHODS FOR IDENTIFYING LIGANDS OF ODORANT RECEPTORS” (DUKE UNIVERSITY, priority 2009, published 2010)
